Results taken from PMC5834214 (PLoS Pathogens, 2018).
Where two headings read alike, the source gives them in different places.

Key:
r3JUNV/eGFP = type: cell-based, Junín virus
rLCMV/eGFP [1] = type: cell-based, lymphocytic choriomeningitis virus
rLCMV/eGFP [2] = type: cell-based, lymphocytic choriomeningitis virus; remark: listed apart in the source
in vitro [3] = conditions: grivet
rLCMV/eGFP [4] = type: cell-based, lymphocytic choriomeningitis virus; remark: listed apart in the source
rLASV/eGFP = test: microbe, parasite or virus in culture; type: cell-based, Lassa virus; conditions: Mammarenavirus lassaense, A549, 48 h, read-out: IC50 (LASV, eGFP expression)
LCMV Z-mediated budding = type: cell-based, lymphocytic choriomeningitis virus
rLCMV/eGFP [5] = test: microbe, parasite or virus in culture; conditions: Mammarenavirus choriomeningitidis, A549, 48 h
rVSV/eGFP = type: cell-based, vesicular stomatitis Indiana virus
in vitro [6] = conditions: human
rLCMV/eGFP [7] = test: microbe, parasite or virus in culture; conditions: Mammarenavirus choriomeningitidis, Vero C1008, 48 h, read-out: IC50 (anti-LCMV, eGFP expression)
rLCMVΔGPC/eGFP = type: cell-based, lymphocytic choriomeningitis virus
LASV Z-mediated budding = type: cell-based, Lassa virus
scrLCMV/ZsG-P2A-NP = type: cell-based, lymphocytic choriomeningitis virus
rLCMV/eGFP [8] = type: cell-based, lymphocytic choriomeningitis virus; remark: listed apart in the source
eGFP = eGFP (Aequorea victoria, UniProt P42212, F64L/H231L/S65T)
LCMV NP (Strep-NP) = LCMV NP (Strep-NP) (Lymphocytic choriomeningitis virus, UniProt P09992)
[9] = read-out: IC50 (anti-LCMV, eGFP expression)

Sequence of LCMV NP (Strep-NP) (P09992 whole entry): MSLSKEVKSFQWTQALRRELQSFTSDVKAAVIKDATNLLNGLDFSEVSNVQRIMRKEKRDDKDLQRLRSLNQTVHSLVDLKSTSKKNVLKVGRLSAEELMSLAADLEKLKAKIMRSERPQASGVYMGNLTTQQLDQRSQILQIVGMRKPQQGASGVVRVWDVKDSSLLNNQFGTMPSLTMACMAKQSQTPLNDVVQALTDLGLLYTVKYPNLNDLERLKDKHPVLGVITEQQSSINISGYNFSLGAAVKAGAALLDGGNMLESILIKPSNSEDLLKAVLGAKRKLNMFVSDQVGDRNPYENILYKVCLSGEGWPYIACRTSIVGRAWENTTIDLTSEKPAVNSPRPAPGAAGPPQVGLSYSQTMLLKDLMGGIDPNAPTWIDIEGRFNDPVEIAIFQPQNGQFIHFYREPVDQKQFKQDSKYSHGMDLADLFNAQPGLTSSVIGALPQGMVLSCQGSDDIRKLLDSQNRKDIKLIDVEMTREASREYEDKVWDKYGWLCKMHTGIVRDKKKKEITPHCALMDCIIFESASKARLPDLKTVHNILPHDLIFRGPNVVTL

| Molecule | JUNV multiplication (r3JUNV/eGFP) | eGFP expression in infected cells (rLCMV/eGFP [1]) | cell entry of LCMV (rLCMV/eGFP [2]) | number of eGFP+ cells (rLCMV/eGFP [2]) | CC50 (in vitro [3]) [nM] | production of infectious LCMV progeny (rLCMV/eGFP [4]) | IC50 (rLASV/eGFP) [nM] | IC50 (rLCMV/eGFP [5]; [9]) [nM] | Multiplication of VSV (rVSV/eGFP) | CC50 (in vitro [6]) [nM] | IC50 (rLCMV/eGFP [7]) [nM] | reporter eGFP expression (virus RNA synthesis) (rLCMVΔGPC/eGFP) | also measured |
| --- | --- | --- | --- | --- | --- | --- | --- | --- | --- | --- | --- | --- | --- |
| COc1ccc([C@@]23Oc4cc(OC)cc(OC)c4[C@]2(O)[C@H](O)[C@H](C(=O)N(C)C)[C@H]3c2ccccc2)cc1 [rocaglamide] | strongly suppressed JUNV multiplication | dose-dependent rocaglamide inhibition of eGFP expression | neither ouabain nor rocaglamide inhibited cell entry of LCMV | negligible number of eGFP^+ cells | 100 | reduced | 37 | 9.51 | not significantly affected | > 1000 | 9.75 | reduced eGFP expression | LCMV Z budding efficiency (LCMV Z-mediated budding): caused a reduction; LASV Z budding efficiency (LASV Z-mediated budding): caused a reduction |
| C[C@]12CC[C@H](O)C[C@H]1CC[C@@H]1[C@@H]2CC[C@]2(C)[C@@H](c3ccc(=O)oc3)CC[C@]12O [bufalin] | strongly suppressed JUNV multiplication |  |  |  | 73.8 |  | 1.66 | 1.85 |  | 16.4 | 12.5 |  |  |
| C[C@@H]1O[C@@H](O[C@H]2C[C@@H](O)[C@]3(CO)[C@H]4[C@H](O)C[C@]5(C)[C@@H](C6=CC(=O)OC6)CC[C@]5(O)[C@@H]4CC[C@]3(O)C2)[C@H](O)[C@H](O)[C@H]1O [ouabain] | strongly suppressed JUNV multiplication | strong dose-dependent inhibition of eGFP expression | neither ouabain nor rocaglamide inhibited cell entry of LCMV | reduced at all time-of-addition points compared to vehicle | 70 | reduced | 9.34 | 5.79 | not significantly affected | 28.9 | 18.4 | did not affect reporter eGFP expression | eGFP expression intensity in infected cells (rLCMV/eGFP [1]): did not affect eGFP expression intensity; IC50 (rLCMV/eGFP [5]; read-out: IC50 as log10 (converted)): 5.79 nM; assembly de novo of extracellular infectious virus (GP-incorporation efficiency) (scrLCMV/ZsG-P2A-NP): did not inhibit assembly de novo of extracellular infectious virus; assembly de novo of extracellular infectious virus (virus titers in TCS) (rLCMV/eGFP [8]): did not inhibit assembly de novo of extracellular infectious virus |
| SPTAN1 |  |  |  |  |  |  |  |  |  |  |  |  | Spectral count eGFP Average (eGFP): 0; Spectral count eGFP Exp. 1 (eGFP): 0; Spectral count eGFP Exp. 2 (eGFP): 0; Spectral count NP Average (LCMV NP (Strep-NP)): 4; Spectral count NP Exp. 1 (LCMV NP (Strep-NP)): 4; Spectral count NP Exp. 2 (LCMV NP (Strep-NP)): 4 |
